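Following 48 hours of exposure in 96-well plates, responses at five concentrations were used to interpolate endpoints linearly. GI50 marks 50% less growth. TGI is the concentration that stops growth completely.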
Columns and labels:
Test in all cases: NCI-60 cell line screen, 48 h
OVCAR-8 ovarian = test system: OVCAR-8 ovarian
MDA-MB-231 breast = test system: MDA-MB-231 breast
NCI-H522 lung = test system: NCI-H522 lung
RPMI-8226 leukemia = test system: RPMI-8226 leukemia
NCI/ADR-RES ovarian = test system: NCI/ADR-RES ovarian
A498 renal = test system: A498 renal
HT29 colon = test system: HT29 colon
TK-10 renal = test system: TK-10 renal
SF-539 CNS = test system: SF-539 CNS
KM12 colon = test system: KM12 colon
SW-620 colon = test system: SW-620 colon
NCI-H226 lung = test system: NCI-H226 lung
MALME-3M melanoma = test system: MALME-3M melanoma
UO-31 renal = test system: UO-31 renal
ACHN renal = test system: ACHN renal
UACC-257 melanoma = test system: UACC-257 melanoma
SN12C renal = test system: SN12C renal
EKVX NSCLC = test system: EKVX NSCLC
HCC-2998 colon = test system: HCC-2998 colon
PC-3 prostate = test system: PC-3 prostate
BT-549 breast = test system: BT-549 breast
HOP-62 NSCLC = test system: HOP-62 NSCLC
MOLT-4 leukemia = test system: MOLT-4 leukemia
HS 578T breast = test system: HS 578T breast
UACC-62 melanoma = test system: UACC-62 melanoma
DU-145 prostate = test system: DU-145 prostate
OVCAR-5 ovarian = test system: OVCAR-5 ovarian
OVCAR-3 ovarian = test system: OVCAR-3 ovarian

C/C=C(/C)C(=O)OC1C=C(CO)C(=O)C(OC(=O)C(C)(O)C(C)Cl)C1C(C)C (stereo not given)
TGI (OVCAR-8 ovarian): 5300 nM
GI50 (MDA-MB-231 breast): 758 nM
TGI (MDA-MB-231 breast): 2260 nM
GI50 (NCI-H522 lung): 603 nM
TGI (NCI-H522 lung): 2370 nM
GI50 (RPMI-8226 leukemia): 429 nM
TGI (RPMI-8226 leukemia): 2650 nM
GI50 (NCI/ADR-RES ovarian): 2310 nM
TGI (NCI/ADR-RES ovarian): 13300 nM
GI50 (A498 renal): 1900 nM
TGI (A498 renal): 3870 nM
GI50 (HT29 colon): 1470 nM
TGI (HT29 colon): 3560 nM
GI50 (TK-10 renal): 1550 nM
TGI (TK-10 renal): 3050 nM
GI50 (SF-539 CNS): 1280 nM
TGI (SF-539 CNS): 2620 nM
GI50 (KM12 colon): 1750 nM
TGI (KM12 colon): 3470 nM
GI50 (SW-620 colon): 1690 nM
TGI (SW-620 colon): 4080 nM
GI50 (NCI-H226 lung): 3720 nM
TGI (NCI-H226 lung): 13000 nM
GI50 (MALME-3M melanoma): 474 nM
TGI (MALME-3M melanoma): 1850 nM
GI50 (UO-31 renal): 1340 nM
TGI (UO-31 renal): 2640 nM
GI50 (ACHN renal): 829 nM
TGI (ACHN renal): 2060 nM
GI50 (UACC-257 melanoma): 1420 nM
TGI (UACC-257 melanoma): 3320 nM
GI50 (SN12C renal): 731 nM
TGI (SN12C renal): 2110 nM
GI50 (EKVX NSCLC): 2190 nM
TGI (EKVX NSCLC): 4900 nM
GI50 (HCC-2998 colon): 1790 nM
TGI (HCC-2998 colon): 3350 nM
GI50 (PC-3 prostate): 1450 nM
TGI (PC-3 prostate): 3300 nM
GI50 (BT-549 breast): 1950 nM
TGI (BT-549 breast): 4710 nM
GI50 (HOP-62 NSCLC): 2100 nM
TGI (HOP-62 NSCLC): 4890 nM
GI50 (MOLT-4 leukemia): 301 nM
TGI (MOLT-4 leukemia): 4880 nM
GI50 (HS 578T breast): 4780 nM
TGI (HS 578T breast): 24400 nM
GI50 (UACC-62 melanoma): 744 nM
TGI (UACC-62 melanoma): 2050 nM
GI50 (DU-145 prostate): 1130 nM
TGI (DU-145 prostate): 2400 nM
GI50 (OVCAR-5 ovarian): 971 nM
TGI (OVCAR-5 ovarian): 2720 nM
GI50 (OVCAR-3 ovarian): 648 nM
TGI (OVCAR-3 ovarian): 1980 nM

— PubChem BioAssay (NCI)
